{"source": "patent US6727076B2", "about": "(priority 1995, dated 2004)", "note": "“Also recorded” adds a separate entry of the source. Where a name gives a salt, the structure may show the parent alone."}
{"system": "E. coli 287 (ATCC #11775)", "format": "cell-based"}
{"compound": "Cc1cn([C@H]2C[C@H](O)[C@@H](CO)O2)c(=O)[nH]c1=O", "note": "[Thymidine]", "carbon source utilization result": "positive"}
{"compound": "NCCc1ccccc1", "note": "[Phenylethyl amine]", "carbon source utilization result": "positive/negative"}
{"compound": "O=C[C@H](O)[C@@H](O)[C@H](O)[C@H](O)COP(=O)(O)O", "note": "[Glucose-6-phosphate]", "carbon source utilization result": "positive"}
{"compound": "CC(=O)N[C@H]1C(O)O[C@H](CO)[C@H](O)[C@@H]1O", "note": "(stereo partly drawn) [N-acetyl-D-galactosamine]", "carbon source utilization result": "positive"}
{"compound": "O=C(O)/C=C/c1c[nH]cn1", "note": "[urocanic acid]", "carbon source utilization result": "negative; also recorded: equivocal; also recorded: positive"}
{"compound": "NCCCCN", "note": "[putrescine]", "carbon source utilization result": "positive/negative"}
{"compound": "OC[C@H]1O[C@@H](O[C@H]2[C@H](O)[C@@H](O)[C@@H](O)O[C@@H]2CO)[C@H](O)[C@@H](O)[C@H]1O", "note": "[α-D-lactose]", "carbon source utilization result": "positive"}
{"compound": "O=C[C@H](O)[C@@H](O)[C@H](O)[C@H](O)C(=O)O", "note": "[D-glucuronic acid]", "carbon source utilization result": "positive"}
{"compound": "OC[C@H]1O[C@@H]2O[C@H]3[C@H](O)[C@@H](O)[C@@H](O[C@H]4[C@H](O)[C@@H](O)[C@@H](O[C@H]5[C@H](O)[C@@H](O)[C@@H](O[C@H]6[C@H](O)[C@@H](O)[C@@H](O[C@H]7[C@H](O)[C@@H](O)[C@@H](O[C@H]1[C@H](O)[C@H]2O)O[C@@H]7CO)O[C@@H]6CO)O[C@@H]5CO)O[C@@H]4CO)O[C@@H]3CO", "note": "[α-cyclodextrin]", "carbon source utilization result": "negative"}
{"compound": "O=C(O)CC(=O)O", "note": "[malonic acid]", "carbon source utilization result": "negative"}
{"compound": "C[N+](C)(C)CC(O)CC(=O)[O-]", "note": "(racemic) [D,L-carnitine]", "carbon source utilization result": "negative"}
{"compound": "CC(C)C[C@H](N)C(=O)O", "note": "[L-leucine]", "carbon source utilization result": "negative"}
{"system": "E. coli MG1655", "format": "cell-based"}
{"compound": "Cc1cn([C@H]2C[C@H](O)[C@@H](CO)O2)c(=O)[nH]c1=O", "note": "[Thymidine]", "suitability as nitrogen source (growth, purple color)": "not suitable"}
{"compound": "NCCc1ccccc1", "note": "[Phenylethyl amine]", "suitability as nitrogen source (growth, purple color)": "not suitable"}
{"compound": "N[C@@H](CS)C(=O)O", "note": "[L-cysteine]", "suitability as nitrogen source (growth, purple color)": "not suitable"}
{"compound": "CC(=O)N[C@H]1C(O)O[C@H](CO)[C@H](O)[C@@H]1O", "note": "(stereo partly drawn) [N-acetyl-D-galactosamine]", "suitability as nitrogen source (growth, purple color)": "not suitable"}
{"compound": "O=C(O)/C=C/c1c[nH]cn1", "note": "[urocanic acid]", "suitability as nitrogen source (growth, purple color)": "not suitable"}
{"compound": "NCCCCN", "note": "[putrescine]", "suitability as nitrogen source (growth, purple color)": "not suitable"}
{"compound": "CSCC[C@H](N)C(=O)O", "note": "[L-methionine]", "suitability as nitrogen source (growth, purple color)": "not suitable"}
{"compound": "CC(C)C[C@H](N)C(=O)O", "note": "[L-leucine]", "suitability as nitrogen source (growth, purple color)": "not suitable"}
{"compound": "N[C@@H](CCC(=O)N[C@@H](CS)C(=O)NCC(=O)O)C(=O)O", "note": "[glutathione (reduced form)]", "suitability as nitrogen source (growth, purple color)": "not suitable"}
{"system": "E. coli MG1655", "format": "cell-based", "remark": "another data set of the same source"}
{"compound": "N[C@H](COP(=O)(O)O)C(=O)O", "note": "[O-phospho-D-serine]", "suitability as phosphorus source (growth, purple color)": "positive"}
{"compound": "O=C[C@H](O)[C@@H](O)[C@H](O)[C@H](O)COP(=O)(O)O", "note": "[Glucose-6-phosphate]", "suitability as phosphorus source (growth, purple color)": "positive"}
{"compound": "CSC[C@H](N)C(=O)O", "note": "[S-methyl-L-cysteine]", "suitability as sulfur source (growth, purple color)": "weak positive"}
{"compound": "NCCS(=O)(=O)O", "note": "[taurine]", "suitability as sulfur source (growth, purple color)": "positive"}
{"compound": "O=C[C@@H](O)[C@@H](O)[C@H](O)[C@H](O)COP(=O)(O)O", "note": "[mannose 6-phosphate]", "suitability as phosphorus source (growth, purple color)": "positive"}
{"compound": "OP(O)(O)=S", "note": "[thiophosphate]", "suitability as phosphorus source (growth, purple color)": "positive", "suitability as sulfur source (growth, purple color)": "positive"}
{"compound": "N[C@@H](CSCSC[C@H](N)C(=O)O)C(=O)O", "note": "[L-djenkolic acid]", "suitability as sulfur source (growth, purple color)": "positive"}
{"compound": "C[C@H](CCC(=O)NCCS(=O)(=O)O)[C@H]1CC[C@H]2[C@@H]3[C@H](O)C[C@@H]4C[C@H](O)CC[C@]4(C)[C@H]3C[C@H](O)[C@]12C", "note": "[taurocholic acid]", "suitability as sulfur source (growth, purple color)": "positive"}
{"compound": "O=P(O)(O)OC1O[C@H](CO)[C@@H](O)[C@H](O)[C@@H]1O", "note": "(some centres unmarked) [mannose 1-phosphate]", "suitability as phosphorus source (growth, purple color)": "positive"}
{"compound": "O=S(=O)(O)CCO", "note": "[isethionate]", "suitability as sulfur source (growth, purple color)": "positive"}
{"compound": "N[C@@H](CS(=O)(=O)O)C(=O)O", "note": "[L-cysteic acid]", "suitability as sulfur source (growth, purple color)": "positive"}
{"compound": "O=C(O)[C@H](O)[C@@H](O)[C@H](O)[C@H](O)COP(=O)(O)O", "note": "[6-phosphogluconic acid]", "suitability as phosphorus source (growth, purple color)": "positive"}
{"compound": "O=P(O)(O)CP(=O)(O)O", "note": "[methylene diphosphonic acid]", "suitability as phosphorus source (growth, purple color)": "not suitable"}
{"compound": "C[C@@H](OP(=O)(O)O)[C@H](N)C(=O)O", "note": "[O-phospho-L-threonine]", "suitability as phosphorus source (growth, purple color)": "positive"}
{"compound": "N[C@H]1C(OP(=O)(O)O)O[C@H](CO)[C@@H](O)[C@@H]1O", "note": "(some centres unmarked) [glucosamine 1-phosphate]", "suitability as phosphorus source (growth, purple color)": "positive"}
{"compound": "N[C@@H](CS)C(=O)O", "note": "[L-cysteine]", "suitability as sulfur source (growth, purple color)": "positive"}
{"compound": "N[C@@H](CS)C(=O)NCC(=O)O", "note": "[cys-gly]", "suitability as sulfur source (growth, purple color)": "positive"}
{"compound": "CS(=O)(=O)CC[C@H](N)C(=O)O", "note": "[L-methionine sulfone]", "suitability as sulfur source (growth, purple color)": "not suitable"}
{"compound": "O=S(=O)(O)SSS(=O)(=O)O", "note": "[tetrathionate]", "suitability as sulfur source (growth, purple color)": "positive"}
{"compound": "N[C@@H](CSC[C@H](N)C(=O)O)C(=O)O", "note": "[lanthionine]", "suitability as sulfur source (growth, purple color)": "positive"}
{"compound": "N[C@H](Cc1ccc(OP(=O)(O)O)cc1)C(=O)O", "note": "[O-phospho-D-tyrosine]", "suitability as phosphorus source (growth, purple color)": "positive"}
{"compound": "Nc1nc2c(ncn2[C@@H]2O[C@H](CO)[C@H]3OP(=O)(O)O[C@H]32)c(=O)[nH]1", "note": "[guanosine 2′:3′-cyclic monophosphate]", "suitability as phosphorus source (growth, purple color)": "positive"}
{"compound": "O=S(O)(O)=S", "note": "[thiosulfate]", "suitability as sulfur source (growth, purple color)": "positive"}
{"compound": "O=P(O)(O)O[C@H]1[C@H](OP(=O)(O)O)[C@@H](OP(=O)(O)O)[C@H](OP(=O)(O)O)[C@@H](OP(=O)(O)O)[C@H]1OP(=O)(O)O", "note": "[inositol hexaphosphate]", "suitability as phosphorus source (growth, purple color)": "not suitable"}
{"compound": "NCCS(=O)O", "note": "[hypotaurine]", "suitability as sulfur source (growth, purple color)": "positive"}
{"compound": "Nc1nc2c(ncn2[C@@H]2O[C@H](CO)[C@@H](OP(=O)(O)O)[C@H]2O)c(=O)[nH]1", "note": "[guanosine 3′-monophosphate]", "suitability as phosphorus source (growth, purple color)": "positive"}
{"compound": "CCSCCC(N)C(=O)O", "note": "(racemic) [DL-ethionine]", "suitability as sulfur source (growth, purple color)": "not suitable"}
{"compound": "CSCC[C@H](N)C(=O)O", "note": "[L-methionine]", "suitability as sulfur source (growth, purple color)": "positive"}
{"compound": "C[S+]([O-])CC[C@H](N)C(=O)O", "note": "(stereo partly drawn) [L-methionine sulfoxide]", "suitability as sulfur source (growth, purple color)": "positive"}
{"compound": "O=C(O)COP(=O)(O)O", "note": "[phosphoglycolic acid]", "suitability as phosphorus source (growth, purple color)": "positive"}
{"compound": "O=S1(=O)CCCC1", "note": "[tetramethylene sulfone]", "suitability as sulfur source (growth, purple color)": "not suitable"}
{"compound": "N[C@H]1C(O)O[C@H](COP(=O)(O)O)[C@@H](O)[C@@H]1O", "note": "(some centres unmarked) [glucosamine 6-phosphate]", "suitability as phosphorus source (growth, purple color)": "positive"}
{"compound": "N[C@@H](CCSC[C@H](N)C(=O)O)C(=O)O", "note": "[cystathionine]", "suitability as sulfur source (growth, purple color)": "positive"}
{"compound": "CN(CC(=O)O)C(=N)NP(=O)(O)O", "note": "[phosphocreatine]", "suitability as phosphorus source (growth, purple color)": "positive"}
{"compound": "CSCCC(NC(C)=O)C(=O)O", "note": "(racemic) [N-acetyl-DL-methionine]", "suitability as sulfur source (growth, purple color)": "positive"}
{"compound": "Nc1nc2c(ncn2[C@@H]2O[C@@H]3COP(=O)(O)O[C@H]3[C@H]2O)c(=O)[nH]1", "note": "[guanosine 3′:5′-cyclic monophosphate]", "suitability as phosphorus source (growth, purple color)": "not suitable"}
{"compound": "O=C(O)CS", "note": "[thioglycolic acid]", "suitability as sulfur source (growth, purple color)": "not suitable"}
{"compound": "CC(=O)OC[C@H](N)C(=O)O", "note": "[O-acetyle-serine with sodium sulfate, O-acetyl-serine]", "suitability as sulfur source (growth, purple color)": "positive"}
{"compound": "O=P(O)(O)OC(CO)CO", "note": "[β-glycerophosphate]", "suitability as phosphorus source (growth, purple color)": "positive"}
{"compound": "CSCCC(NC(=O)CN)C(=O)O", "note": "(racemic) [glycyl-DL-methionine]", "suitability as sulfur source (growth, purple color)": "positive"}
{"compound": "O=P(O)(O)OP(=O)(O)O", "note": "[pyrophosphate]", "suitability as phosphorus source (growth, purple color)": "not suitable"}
{"compound": "O=C(COP(=O)(O)O)[C@@H](O)[C@H](O)[C@H](O)CO", "note": "[fructose 1-phosphate]", "suitability as phosphorus source (growth, purple color)": "positive"}
{"compound": "C=C(OP(=O)(O)O)C(=O)O", "note": "[phosphoenol pyruvate]", "suitability as phosphorus source (growth, purple color)": "positive"}
{"compound": "N[C@@H](COP(=O)(O)O)C(=O)O", "note": "[O-phospho-L-serine]", "suitability as phosphorus source (growth, purple color)": "positive"}
{"compound": "O=C[C@@H](O)[C@H](O)[C@H](O)COP(=O)(O)O", "note": "[arabinose 5-phosphate]", "suitability as phosphorus source (growth, purple color)": "positive"}
{"compound": "O=C(O)C(CO)OP(=O)(O)O", "note": "(centres unmarked) [2-phosphoglyceric acid]", "suitability as phosphorus source (growth, purple color)": "positive"}
{"compound": "phosphatidyl glycerol", "suitability as phosphorus source (growth, purple color)": "not suitable"}
{"compound": "N[C@@H](CS(=O)O)C(=O)O", "note": "[L-cysteine sulphinic acid]", "suitability as sulfur source (growth, purple color)": "positive"}
{"compound": "O=C(CO)[C@@H](O)[C@H](O)[C@H](O)COP(=O)(O)O", "note": "[Fructose-6-phosphate]", "suitability as phosphorus source (growth, purple color)": "positive"}
{"compound": "O=c1ccn([C@@H]2O[C@H](CO)[C@@H](O)[C@H]2OP(=O)(O)O)c(=O)[nH]1", "note": "[uridine 2′-monophosphate]", "suitability as phosphorus source (growth, purple color)": "positive"}
{"compound": "N[C@@H](Cc1ccc(OP(=O)(O)O)cc1)C(=O)O", "note": "[O-phospho-L-tyrosine]", "suitability as phosphorus source (growth, purple color)": "positive"}
{"compound": "O=P(O)(O)OP(=O)(O)OP(=O)(O)O", "note": "[tripolyphosphate]", "suitability as phosphorus source (growth, purple color)": "not suitable"}
{"compound": "Cc1cn([C@H]2C[C@H](O)[C@@H](COP(=O)(O)O)O2)c(=O)[nH]c1=O", "note": "[thymidine 5′-monophosphate]", "suitability as phosphorus source (growth, purple color)": "positive"}
{"compound": "CCCCCCCCCCCCS(=O)(=O)O", "note": "[1-dodecane-sulfonic acid]", "suitability as sulfur source (growth, purple color)": "not suitable"}
{"compound": "N[C@@H](CCC(=O)N[C@@H](CS)C(=O)NCC(=O)O)C(=O)O", "note": "[glutathione (reduced form)]", "suitability as sulfur source (growth, purple color)": "positive"}
{"compound": "Cc1cn([C@H]2C[C@H](OP(=O)(O)O)[C@@H](CO)O2)c(=O)[nH]c1=O", "note": "[thymidine 3′-monophosphate]", "suitability as phosphorus source (growth, purple color)": "positive"}
{"compound": "O=C(O)CP(=O)(O)O", "note": "[phosphonoacetic acid]", "suitability as phosphorus source (growth, purple color)": "not suitable"}
{"compound": "CC(=O)N[C@@H](CS)C(=O)O", "note": "[N-acetyl cysteine]", "suitability as sulfur source (growth, purple color)": "not suitable"}
